Entries after “also recorded” stand apart in the source; their conditions may differ. Read-outs that look alike come from different tables or passages of the source.
Columns and labels:
[1] = tested on: HLA-DRB1*0401 transgenic mice; assay: Vaccination of HLA-DRB1*0401 transgenic mice (peptide + IC31), IFN-gamma ELISpot with spleen cells and CD4+ fraction; assay type: in vivo, mouse; conditions: peptide + IC31, whole spleen cells and CD4+ fraction; listed as Ipep1604
Outline: (§1)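 Transgenic mice (groups of 5, male, 8–14 weeks) vaccinated s.c. in hind footpads with 100 μg peptide + IC31; 6 days later pooled splenocytes or MACS-purified CD8+ (A2, B7) or CD4+ (DR4) fractions restimulated overnight with peptide. IFN-gamma spots counted by ELISpot, 1×10^6–3×10^5 cells/well.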

[2] = tested on: HLA-DRB1*0401 transgenic mice; assay: Immunization of HLA-DRB1*0401 transgenic mice (peptide + CpI), splenocyte IFN-gamma ELISpot; assay type: in vivo, mouse
Outline: (§2)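 Groups of three female 8-week-old transgenic mice were given 100 μg peptide plus 30 μg CpI oligodinucleotide subcutaneously in the flank. Splenocytes (1×10^6–3×10^5/well) were restimulated overnight at 37 °C with the immunizing peptide, control peptides or medium, and IFN-gamma spots counted by ELISpot; + = <100, ++ = >100 peptide-specific cells per million splenocytes.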

[3] = tested on: HLA-A*0201 transgenic mice; assay: Immunization of HLA-A*0201 transgenic mice (peptide + CpI), splenocyte IFN-gamma ELISpot; assay type: in vivo, mouse
Outline: as §2

[4] = tested on: HLA class II; assay: HLA class II coverage of hotspots and epitopes, compiled from the Examples and Tables of this specification (epitope capture, HLA-transgenic animals, in vitro stimulation of human mononuclear cells); conditions: source data: Examples and Tables within this specification
[5] = target: HLA-DRB1*0101 (Homo sapiens, UniProt P01903+P01911, A100R/D57E/F55L/F60I/F76Y/I96L/L162R/M171V/P40L/Q125E/R42F/V115G/Y59C); assay: Epitope capture / peptide binding, SDS-stability assay, soluble DRB1*0101; conditions: soluble HLA class II, individual peptide confirmed (Table 2)
[6] = tested on: HLA-A*0201 transgenic mice; assay: Vaccination of HLA-A*0201 transgenic mice (peptide + IC31), IFN-gamma ELISpot with spleen cells and CD8+ fraction; assay type: in vivo, mouse; conditions: peptide + IC31, whole spleen cells and CD8+ fraction; listed as Ipep1604
Method: Mouse splenocyte ELIspot assay for single cell IFN-gamma release ELISpot plates (MAHA S4510, Millipore, Germany) were rinsed with PBS (200 μl/well), coated with anti-mouse IFN-gamma mAb (clone R46A2; 100 μl/well of 5 μg/ml in 0.1 M NaHCO3, pH 9.2-9.5) and incubated overnight at 4° C. Plates were washed four times with PBS/0.1% Tween 20 and incubated with PBS/1% BSA (200 μl/well) at room temperature for 2 h to block nonspecific binding. Spleen cells from vaccinated mice were prepared and plated at 1×10^6-3×10^5 cells/well and incubated overnight at 37° C./5% CO2 either in the presence of the immunizing antigen (peptide), control peptides or with medium alone. Subsequently, plates were washed four times and incubated with biotinylated anti-mouse IFN-gamma mAb (clone AN18.17.24, 100 μl/well of 2 μg/ml in PBS/1% BSA) for 2 h at 37° C. After washing, streptavidin-peroxidase (Roche Diagnostics, Vienna, Austria) was added ( 1/5000 in PBS, 100 μl/well) and plates were incubated at room temperature for 2 additional hours. Subsequently, substrate was added to the washed plates (100 μl/well of a mixture of 10 ml 100 mM Tris pH 7.5 supplemented with 200 μl of 40 mg/ml DAB stock containing 50 μl of 80 mg/ml NiCl2 stock and 5 μl of 30% H2O2). The reaction was stopped after 20-30 minutes by washing the plates with tap water. Dried plates were evaluated with an ELISpot reader (BIOREADER 2000, BioSys, Karben, Germany).
Groups of 5 mice (HLA-A*0201-, HLA-DRB1*0401- and HLA-B*0702 transgenic mice, male, 8-14 weeks of age) were injected subcutaneous into the hind footpads with 100 μg of peptide +IC31 per mouse (50 μg per footpad). (PCT/EP01/12041, WO 02/32451 A1 and PCT/EP01/06433, WO 01/93905 A1; IC31 is a combination of the immunizer disclosed in WO 01/93905 and WO 02/32451).
6 days after vaccination single cell suspension of pooled spleens were prepared and additionally pure fractions of CD8+ in the case of A2 and B7 tg mice (CD8+ fraction for B7 mice containing 97% of CD8 and 1.5% of CD4 cells and for A2 tg mice 83% of CD8 and 8% of CD4 cells) and CD4+ for DR4tg mice (CD4+ fraction for DR4tg mice containing 98% of CD4 cells and 0.2% of CD8 cells) were separated from the spleen cell suspension using MACS separating kit (Miltenyi, Germany).

[7] = tested on: HLA-B*0702 transgenic mice; assay: Vaccination of HLA-B*0702 transgenic mice (peptide + IC31), IFN-gamma ELISpot with spleen cells and CD8+ fraction; assay type: in vivo, mouse; conditions: for specific INF-γ producing T cells / HLA-B*0702 epitope in HLA-B*0702 transgenic mice (in words): peptide + IC31, whole spleen cells and CD8+ fraction
Outline: as §1

[8] = tested on: PBMC from HCV RNA-negativ therapy responders or subjects spontaneously recovered; assay: IFN-gamma ELIspot with human PBMC from HCV therapy responders or spontaneously recovered subjects; conditions: directly ex vivo, donor H38; >8 significant
[9] = tested on: HLA class I; assay: HLA class I coverage of hotspots and epitopes, compiled from the Examples and Tables of this specification (epitope capture, HLA-transgenic animals, in vitro stimulation of human mononuclear cells); conditions: source data: Examples and Tables within this specification
Excerpt: Thus, as even individual T-cell epitopes are not obvious within the sequence of a polypeptide, the same is even more the case for hotspots. Several radically different experimental approaches are combined according to the present invention for T-cell epitope identification, including epitope capture, HLA-transgenic animals and in vitro stimulation of human mononuclear cells. All three approaches are systematically applied on overlapping peptides spanning the antigen of interest, enabling comprehensive identification of epitopes (refer to CMV Epitope Capture patent). Upon such a comprehensive analysis, not limited to a particular HLA allele, but rather unravelling all possibly targeted epitopes within a population, epitope hotspots may become apparent. Within an antigen, only few if any sequences show characteristics of hotspots. Thus the identification of a hotspot is always a surprising event.

[10] = tested on: PBMC (in vitro primed); assay: IFN-gamma ELIspot after 2 rounds of in vitro priming of human PBMC; assay type: cell-based; conditions: donor H10
Method: Human PBMCs are repeatedly stimulated with antigen (peptide or peptide mixture) in the presence of IL-2 and IL-7. This leads to the selective oligoclonal expansion of antigen-specific T cells. Responses against individual epitopes can be assessed for instance by IFN-γ ELIspot assays. Freshly thawed PBMCs were cultured in 6 well plates (2-4×10^6/mL viable cells) in RPMI-1640 (GibcoBRL), 1% non-essential amino acids (GibcoBRL, cat# 11140-035), 1% Penicillin (10,000 U/ml)-Streptomycin (10,000 μg/ml) (GibcoBRL, cat#15140-122), 1% L-Glutamine (GibcoBRL), 0.1% beta-mercapto-ethanol (GibcoBRL), 1% Na-pyruvate (GibcoBRL), plus 10% Human AB serum (PAA, Linz, Austria). Peptides (10 μM each) were added to each well. rhIL-7 (Strathmann Biotech) was added at 10 ng/mL final concentration. 20-30 U/mL rhIL-2 (Strathmann Biotech) were added on day 4. On day 10, all cells were removed from plates, washed once in media (as above), and counted. For the next cycle of in vitro priming, viable cells were co-cultivated with autologous gamma irradiated (1.2 gray/min, for 20 minutes) PBMC as feeders (plated at 100,000 per well) and peptides, rh-IL-2 as described above. ELIspot was done as described above, except that 200,000 responder cells (pre-stimulated for 2 rounds of in vitro priming) were used together with 60,000 autologous irradiated […] cells.

[11] = tested on: HLA class I; conditions: source data: literature reference; cited from earlier work
[12] = target: HLA-B*0702 (Homo sapiens, UniProt P01889); assay: Competition-type peptide binding assay, soluble HLA-B*0702, FITC-labelled reference peptide; conditions: for HLA-B*0702 minimal epitope (in words): short peptides from Ipep 1587 with HLA-B*0702 binding motifs
Method: These were tested in a competition-type peptide binding assay using soluble HLA-B*0702 and the FITC-labelled reference peptide […] (SEQ ID NO:1033), which is a known HLA-B*0702 epitope derived from EBV (Stuber et al., 1995). […] Thus it is likely to present the minimal HLA-B*0702 epitope contained in Ipep 1587.

[13] = Example II, IFN-gamma ELISpot of splenocytes

With VVCCSMSYTWTGALITPC [Peptide 1604] the “specific INF-γ producing T cells / HLA-DRB1*0401 epitope in HLA-DRB1*0401 transgenic mice (in words)” value [1] was “high numbers of specific INF-γ producing T cells; also recorded: class II epitope”, the “immunogenicity in HLA-DRB1*0401 transgenic mice (in words)” value [2, 13] was “immunogenic; also recorded: immunogenicity” and the “Immunogenicity, peptide-specific IFN-gamma-producing cells, DRB1*0401” value ([2]; HLA-DRB1*0401 transgenic mice, splenocytes) was “++ (strongly immunogenic (++, more than 100 peptide-specific cells among a million splenocytes))”. For the same substance, the “immunogenicity in HLA-A*0201 transgenic mice (in words)” value [3, 13] was “immunogenicity”, the “Immunogenicity, peptide-specific IFN-gamma-producing cells, A*0201” value ([3]; HLA-A*0201 transgenic mice, splenocytes) was “++ (strongly immunogenic (++, more than 100 peptide-specific cells among a million splenocytes))” and the “HLA-class II coverage” value [4] was “DR1,4,7,11”. For the same substance, the “Binding to DRB1 *0101” value [5] was “* (weak binding)”, the “specific INF-γ producing T cells / HLA-A*0201 epitope in HLA-A*0201 transgenic mice (in words)” value [6] was “high numbers of specific INF-γ producing T cells; also recorded: class I epitopes” and the “Immunogenicity, peptide-specific IFN-gamma-producing cells, B*0702” value ([7]; HLA-B*0702 transgenic mice, splenocytes) was “++ (strongly immunogenic (++, more than 100 peptide-specific cells among a million splenocytes))”. The “specific INF-γ producing T cells / HLA-B*0702 epitope in HLA-B*0702 transgenic mice (in words)” value [7] was “HLA-B*0702 epitopes with T-cell activating capacity” and the “specific INF-γ producing T cells / HLA-B*0702 epitope in HLA-B*0702 transgenic mice (in words)” value ([7]; listed as Ipep1604) was “high numbers of specific INF-γ producing T cells; also recorded: class I epitopes”.

For DYPYRLWHYPCTVNYTIFKI [Peptide 1800], the “peptide-specific IFN-gamma secreting T-cells, donor H38” value [8] was 35 T-cells/10^6 PBMC, the “HLA-class I coverage” value [9] was “Cw7,A24,A11” and the “peptide-specific IFN-gamma secreting T-cells, donor H10, after 2 rounds of in vitro stimulation” value [10] was 95 T-cells/10^6 PBMC. For the same substance, the “HLA-class II coverage” value [4] was “DR7”.

For 1754 (DYPYRLWHY) [compound 1754], the “HLA-class I coverage” value [11] is given as “Cw7”.

In the case of SPGALVVGVI [Peptide 1838], the “competition of FITC-labelled reference peptide binding to soluble HLA-B*0702” value ([12]; 80-fold molar excess, 48 h at 37° C., reference peptide LPCVLWPVL) is reported as about 30%, the “HLA-B*0702 minimal epitope (in words)” value [12] is reported as “minimal HLA-B*0702 epitopes” and the “HLA-B*0702 minimal epitope (in words)” value ([12]; listed as Ipep 1838) is reported as “HLA-B*0702 minimal epitope”.
